# In US11883413B2, “Inhibition of thymine DNA glycosylase in the treatment of cancer” (Institute For Cancer Research, priority 2013, dated 2024):
# Columns and labels:
# [1] = tested on: LNCaP prostate cancer cells; test: MTS assay, prostate cancer cells; type: cell-based
# Method: (§1) The TDG inhibitors, juglone and closantel, were tested for their ability to kill PC3 and LNCaP prostate cancer cells.
# [2] = tested on: PC3 prostate cancer cells; test: MTS assay, prostate cancer cells; type: cell-based
# Method: as §1
# [3] = tested on: SK28 MEL melanoma cells; test: clonogenic assay; type: cell-based
# Method: (§2) Tests were conducted in quadruplicate.
# [4] = target: T1, TDG (Homo sapiens, UniProt Q13569); test: TDG glycosylase activity in vitro (FIG. 24-25); type: biochemical
# T1 sequence (Q13569 whole entry): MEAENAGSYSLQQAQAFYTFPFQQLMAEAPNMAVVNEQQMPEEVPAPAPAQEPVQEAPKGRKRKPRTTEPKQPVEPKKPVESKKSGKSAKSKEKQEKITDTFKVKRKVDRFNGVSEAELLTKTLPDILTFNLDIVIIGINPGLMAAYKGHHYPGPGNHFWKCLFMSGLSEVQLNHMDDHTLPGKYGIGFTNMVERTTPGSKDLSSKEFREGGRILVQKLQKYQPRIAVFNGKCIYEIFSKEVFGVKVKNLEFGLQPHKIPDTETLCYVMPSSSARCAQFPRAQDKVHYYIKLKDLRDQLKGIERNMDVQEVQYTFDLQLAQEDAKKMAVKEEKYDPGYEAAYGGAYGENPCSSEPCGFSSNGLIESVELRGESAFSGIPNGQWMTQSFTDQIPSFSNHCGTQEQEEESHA
# [5] = tested on: SK28 melanoma cells; test: 5-carboxylcytosine (5caC) immunofluorescence staining of cells; type: cell-based; conditions: SK28 melanoma cells treated with compound
# [6] = tested on: LNCaP prostate cancer cells; test: clonogenic assay, prostate cancer cells; type: cell-based
# Method: as §1
# [7] = tested on: PC3 prostate cancer cells; test: clonogenic assay, prostate cancer cells; type: cell-based
# Method: as §1
# [8] = tested on: cancer cells; test: 5caC levels on chemotherapeutic treatment combined with TDG downregulation/inhibition; type: cell-based; conditions: for 5-carboxylcytosine levels, TDG inhibitor combined with temozolomide: combined with temozolomide treatment
# Source text: Vincristin is an inhibitor of mitosis that arrests cells in metaphase; it is used as a chemotherapeutic agent for leukemia/lymphoma and melanoma.
# [9] = target: T1, TDG; test: molecular beacon qPCR-based assay of TDG glycosylase activity (G:T / G:U repair), library screen; type: biochemical; conditions: 0, 5, 50 and 500 μg/ml
# Method: (§3) (A) Schematic of the molecular beacon assay for G:T repair.
# In the folded hairpin substrate, the fluorescence of 6-FAM, used as fluorescent label at the 5′ end, is quenched by a dabsyl “black hole” moiety at the 3′ end. Upon removal of the mismatched T or U by TDG, and incision of the resulting apurinic/apyrimidinic (AP site) by APE, a short oligonucleotide containing 6-FAM was released. The resulting fluorescence was monitored by real-time qPCR over a 2-hour incubation period at 37° C., providing a sensitive and quantitative measurement of repair activity.
# (§4) This assay was optimized for a 96-well and 384-well format. Upon screening the ICCB known bioactive library (approximately 500 compounds) and the Johns Hopkins clinical compound library (approximately 1500 drugs), eighteen and fourteen candidates, respectively (Tables 1 and 2) were identified. Some of these compounds confirmed TDG inhibition in a standard, radioactive-based glycosylase assay (FIG. 19).
# [10] = tested on: SK28 cells; test: MTS cell viability assay; type: cell-based; conditions: for cell viability of SK28 cells: concentration-dependent, quadruplicate
# Method: as §2
# [11] = target: T1, TDG; test: standard (conventional) radioactive-based glycosylase assay; type: biochemical; conditions: tested at 100 nM, 10 μM and 1 mM
# Source text: as §3, §4
# [12] = combined with TDG downregulation (C8)
smiles,measurement,setting,value
"O=C1C=CC(=O)c2c(O)cccc21 [Juglone, 5-hydroxynaphthoquinone]","proliferation of LNCaP cells, MTS assay",[1],stopped proliferation
same,"proliferation of PC3 cells, MTS assay",[2],stopped proliferation
same,clonogenic capacity of SK28 MEL melanoma cells,[3],reduction of clonogenic capacity
same,inhibition of TDG glycosylase activity in vitro,[4],inhibition of TDG glycosylase activity in vitro
same,5caC staining in the nuclei of cells in culture,[5],increase 5caC staining
same,"proliferation of LNCaP cells, clonogenic assay",[6],stopped proliferation
same,"proliferation of PC3 cells, clonogenic assay",[7],stopped proliferation
same,"5-carboxylcytosine levels, TDG inhibitor combined with temozolomide",[8],highly elevated
same,"inhibition of TDG activity, molecular beacon assay for G:T repair",[9],Dose dependent inhibition
same,cell viability of SK28 cells,[10],reduce cell viability
"Cc1cc(C(C#N)c2ccc(Cl)cc2)c(Cl)cc1NC(=O)c1cc(I)cc(I)c1O (stereo not drawn) [Closantel, 5′-Chloro-4′-(4-chloro-α-cyanobenzyl)-3,5-diiodo-2′-methylsalicylanilide, N-[5-Chloro-4-(4-chloro-α-cyanobenzyl)-2-methylphenyl]-2-hydroxy-3,5-diiodobenzamide]","proliferation of LNCaP cells, MTS assay",[1],stopped proliferation
same,"proliferation of PC3 cells, MTS assay",[2],stopped proliferation
same,clonogenic capacity of SK28 MEL melanoma cells,[3],reduction of clonogenic capacity
same,inhibition of TDG glycosylase activity in vitro,[4],inhibition of TDG glycosylase activity in vitro
same,5caC staining in the nuclei of cells in culture,[5],increase 5caC staining
same,"proliferation of LNCaP cells, clonogenic assay",[6],stopped proliferation
same,"proliferation of PC3 cells, clonogenic assay",[7],stopped proliferation
same,"5-carboxylcytosine levels, TDG inhibitor combined with temozolomide",[8],highly elevated
same,cell viability of SK28 cells,[10],reduce cell viability
same,"inhibition of TDG activity, conventional glycosylase assay",[11],inhibition of TDG activity
N.N.[Cl][Pt][Cl] [cisplatin],"SK28 cell viability, cisplatin combined with TDG downregulation",[10]; [12],reduction of SK28 cell viability
"C=CC1=C(C(=O)O)N2C(=O)[C@@H](NC(=O)/C(=N\OCC(=O)O)c3csc(N)n3)[C@H]2SC1 [Cefixime, (6R,7R)-7-{[2-(2-amino-1,3-thiazol-4-yl)-2-(carboxymethoxyimino)acetyl]amino}-3-ethenyl-8-oxo-5-thia-1-azabicyclo[4.2.0]oct-2-ene-2-carboxylic acid]",clonogenic capacity of SK28 MEL melanoma cells,[3],reduction of clonogenic capacity
same,cell viability of SK28 cells,[10],reduce cell viability
same,"inhibition of TDG activity, conventional glycosylase assay",[11],inhibition of TDG activity
same,relative potency in conventional glycosylase assay,[11],"more potent than compound 2, closantel"
CC[C@]1(O)C[C@H]2CN(CCc3c([nH]c4ccccc34)[C@@](C(=O)OC)(c3cc4c(cc3OC)N(C=O)[C@H]3[C@@](O)(C(=O)OC)[C@H](OC(C)=O)[C@]5(CC)C=CCN6CC[C@]43[C@@H]65)C2)C1 [vincristine],"5caC levels, vincristine combined with TDG downregulation",[8]; [12],further increased
same,"5caC levels, vincristine alone",[8]; in the absence of TDG downregulation (pLKO),increase of 5caC levels
